{"source": "patent US20060251637A1", "about": "“Oil-in-water type emulsion containing coenzyme q10 and process for producting the same” (priority 2003, published 2006)", "origin": "cited, not measured here", "conditions": "at 20° C.; decreases with decreasing temperature"}
{"smiles": "COC1=C(OC)C(=O)C(C/C=C(\\C)CC/C=C(\\C)CC/C=C(\\C)CC/C=C(\\C)CC/C=C(\\C)CC/C=C(\\C)CC/C=C(\\C)CC/C=C(\\C)CC/C=C(\\C)CCC=C(C)C)=C(C)C1=O", "note": "[coenzyme Q10]", "values": [{"measurement": "Lipid solubility of coenzyme Q10", "result": "approximately 1%"}]}
